Reference: ChEMBL document CHEMBL3769405, “Discovery of Potent and Selective Inhibitors of Phosphodiesterase 1 for the Treatment of Cognitive Impairment Associated with Neurodegenerative and Neuropsychiatric Diseases” (J Med Chem, 2016)
Converted amounts (≈) assume the structure as drawn.

Legend:
[1] = Inhibition of bovine brain PDE1 using fluorescent labeled cGMP as substrate after 15 mins by IMAP assay; parameters: species or system Bos taurus
[2] = molecular target: cAMP and cAMP-inhibited cGMP 3',5'-cyclic phosphodiesterase 10A (Homo sapiens, UniProt Q9Y233); assay: Inhibition of recombinant full lenght human PDE10A using fluorescent labeled cAMP as substrate after 15 mins by IMAP assay
[3] = molecular target: 3',5'-cyclic-AMP phosphodiesterase 4A (Homo sapiens, UniProt P27815); assay: Inhibition of recombinant full lenght human PDE4A using fluorescent labeled cAMP as substrate after 15 mins by IMAP assay
[4] = Intrinsic clearance in human liver microsomes; type: ADME; details: read-out: CLH
[5] = molecular target: cGMP-dependent 3',5'-cyclic phosphodiesterase (Homo sapiens, UniProt O00408); assay: Inhibition of recombinant full length human PDE2A using fluorescent labeled cAMP as substrate after 15 mins by IMAP assay
[6] = molecular target: cGMP-inhibited 3',5'-cyclic phosphodiesterase 3B (Homo sapiens, UniProt Q13370); assay: Inhibition of recombinant full length human PDE3B using fluorescent labeled cAMP as substrate after 15 mins by IMAP assay
[7] = molecular target: cGMP-specific 3',5'-cyclic phosphodiesterase (Homo sapiens, UniProt O76074); assay: Inhibition of recombinant full lenght human PDE5A using fluorescent labeled cGMP as substrate after 15 mins by IMAP assay
[8] = Inhibition of bovine retinal PDE6 using fluorescent labeled cGMP as substrate after 15 mins by IMAP assay
[9] = molecular target: 3',5'-cyclic-AMP phosphodiesterase 7B (Homo sapiens, UniProt Q9NP56); assay: Inhibition of recombinant full lenght human PDE7B using fluorescent labeled cAMP as substrate after 15 mins by IMAP assay
[10] = molecular target: High affinity cAMP-specific and IBMX-insensitive 3',5'-cyclic phosphodiesterase 8A (Homo sapiens, UniProt O60658); assay: Inhibition of recombinant full lenght human PDE8A using fluorescent labeled cAMP as substrate after 15 mins by IMAP assay
[11] = molecular target: High affinity cGMP-specific 3',5'-cyclic phosphodiesterase 9A (Homo sapiens, UniProt O76083); assay: Inhibition of recombinant full lenght human PDE9A using fluorescent labeled cGMP as substrate after 15 mins by IMAP assay
[12] = Lipophilicity, logD of compound at pH 7.4; type: physicochemical; details: buffer
[13] = Lipophilicity, logD of compound at pH 1.7; type: physicochemical; details: buffer
[14] = Solubility of compound in PBS; type: physicochemical
[15] = Cmax in C57BL/6 mouse plasma at 10 mg/kg administered through oral gavage; type: ADME, organism-based; parameters: dose 10 mg/kg, route oral
[16] = Cmax in C57BL/6 mouse brain at 10 mg/kg administered through oral gavage; type: ADME, organism-based; parameters: dose 10 mg/kg, route oral
[17] = AUClast in C57BL/6 mouse plasma at 10 mg/kg administered through oral gavage; type: ADME, organism-based; parameters: dose 10 mg/kg, time 0 - last, route oral
[18] = AUClast in C57BL/6 mouse brain at 10 mg/kg administered through oral gavage; type: ADME, organism-based; parameters: dose 10 mg/kg, time 0 - last, route oral
[19] = Half time in Sprague-Dawley rat at 1 mg/kg, iv; type: ADME, organism-based; details: in vivo
[20] = Volume of distribution in Sprague-Dawley rat at 1 mg/kg, iv; type: ADME, organism-based; details: in vivo
[21] = Clearance in Sprague-Dawley rat at 1 mg/kg, iv; type: ADME, organism-based; details: in vivo
[22] = AUC(infinity) in Sprague-Dawley rat at 1 mg/kg, iv; type: ADME, organism-based; parameters: dose 1 mg/kg, time infinity, route intravenous; details: in vivo
[23] = Half time in Sprague-Dawley rat at 9.75 mg/kg administered through oral gavage; type: ADME, organism-based; details: in vivo
[24] = Cmax in Sprague-Dawley rat at 9.75 mg/kg administered through oral gavage; type: ADME, organism-based; parameters: dose 9.75 mg/kg, route oral; details: in vivo
[25] = Tmax in Sprague-Dawley rat at 9.75 mg/kg administered through oral gavage; type: ADME, organism-based; details: in vivo
[26] = AUC(infinity) in Sprague-Dawley rat at 9.75 mg/kg administered through oral gavage; type: ADME, organism-based; parameters: dose 9.75 mg/kg, route oral, time infinity; details: in vivo
[27] = Oral bioavailability in Sprague-Dawley rat at 9.75 mg/kg administered through gavage; type: ADME, organism-based; details: in vivo
[28] = Selectivity ratio of Ki for recombinant full lenght human PDE4A to bovine brain PDE1
in vivo = details: C57BL/6, mouse, brain/plasma
Rattus norvegicus = assay: Increase in cognitive performance in ip dosed Sprague-Dawley rat after 60 mins by novel object recognition test; type: functional; details: 1 h, read-out: MED

Chain of High affinity cGMP-specific 3',5'-cyclic phosphodiesterase 9A (O76083 whole entry): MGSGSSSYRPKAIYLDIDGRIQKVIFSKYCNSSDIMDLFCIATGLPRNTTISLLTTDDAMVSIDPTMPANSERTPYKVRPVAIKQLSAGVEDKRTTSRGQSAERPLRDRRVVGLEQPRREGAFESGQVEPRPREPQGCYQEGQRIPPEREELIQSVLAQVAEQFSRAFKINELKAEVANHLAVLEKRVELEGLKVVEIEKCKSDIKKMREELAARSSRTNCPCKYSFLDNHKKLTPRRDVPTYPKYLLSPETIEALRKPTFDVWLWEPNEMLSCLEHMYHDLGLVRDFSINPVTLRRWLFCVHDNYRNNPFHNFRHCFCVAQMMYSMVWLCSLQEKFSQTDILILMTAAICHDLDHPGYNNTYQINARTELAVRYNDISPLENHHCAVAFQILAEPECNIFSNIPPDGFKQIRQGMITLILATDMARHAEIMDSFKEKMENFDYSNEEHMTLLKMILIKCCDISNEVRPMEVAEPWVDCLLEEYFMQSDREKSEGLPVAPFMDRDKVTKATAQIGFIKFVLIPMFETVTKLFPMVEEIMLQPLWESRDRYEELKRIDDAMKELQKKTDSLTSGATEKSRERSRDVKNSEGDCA
Chain of cGMP-dependent 3',5'-cyclic phosphodiesterase (O00408 whole entry): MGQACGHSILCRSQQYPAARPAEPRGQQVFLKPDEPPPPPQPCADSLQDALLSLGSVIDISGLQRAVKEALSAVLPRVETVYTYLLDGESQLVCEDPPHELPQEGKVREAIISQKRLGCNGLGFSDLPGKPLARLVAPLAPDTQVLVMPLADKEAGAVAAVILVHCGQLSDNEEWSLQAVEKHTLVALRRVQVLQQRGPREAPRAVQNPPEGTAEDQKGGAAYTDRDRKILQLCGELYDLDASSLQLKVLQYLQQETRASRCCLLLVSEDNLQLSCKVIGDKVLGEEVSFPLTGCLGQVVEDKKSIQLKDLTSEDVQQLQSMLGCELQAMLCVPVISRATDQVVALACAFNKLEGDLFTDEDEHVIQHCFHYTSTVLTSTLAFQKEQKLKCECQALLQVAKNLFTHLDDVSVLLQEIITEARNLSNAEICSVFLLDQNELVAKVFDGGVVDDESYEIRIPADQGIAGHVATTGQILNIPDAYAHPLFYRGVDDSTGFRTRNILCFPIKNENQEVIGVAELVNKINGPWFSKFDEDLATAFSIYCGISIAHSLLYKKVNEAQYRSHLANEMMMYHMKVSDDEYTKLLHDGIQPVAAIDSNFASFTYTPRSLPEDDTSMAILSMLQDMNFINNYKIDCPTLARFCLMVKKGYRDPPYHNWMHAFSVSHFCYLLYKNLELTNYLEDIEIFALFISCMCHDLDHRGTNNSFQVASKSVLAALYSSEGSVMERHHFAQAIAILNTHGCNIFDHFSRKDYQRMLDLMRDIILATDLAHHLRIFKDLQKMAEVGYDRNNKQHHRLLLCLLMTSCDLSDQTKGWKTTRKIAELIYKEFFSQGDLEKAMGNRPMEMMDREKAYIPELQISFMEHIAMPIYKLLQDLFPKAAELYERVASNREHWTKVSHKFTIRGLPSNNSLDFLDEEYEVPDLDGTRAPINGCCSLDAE
Chain of 3',5'-cyclic-AMP phosphodiesterase 4A (P27815 whole entry): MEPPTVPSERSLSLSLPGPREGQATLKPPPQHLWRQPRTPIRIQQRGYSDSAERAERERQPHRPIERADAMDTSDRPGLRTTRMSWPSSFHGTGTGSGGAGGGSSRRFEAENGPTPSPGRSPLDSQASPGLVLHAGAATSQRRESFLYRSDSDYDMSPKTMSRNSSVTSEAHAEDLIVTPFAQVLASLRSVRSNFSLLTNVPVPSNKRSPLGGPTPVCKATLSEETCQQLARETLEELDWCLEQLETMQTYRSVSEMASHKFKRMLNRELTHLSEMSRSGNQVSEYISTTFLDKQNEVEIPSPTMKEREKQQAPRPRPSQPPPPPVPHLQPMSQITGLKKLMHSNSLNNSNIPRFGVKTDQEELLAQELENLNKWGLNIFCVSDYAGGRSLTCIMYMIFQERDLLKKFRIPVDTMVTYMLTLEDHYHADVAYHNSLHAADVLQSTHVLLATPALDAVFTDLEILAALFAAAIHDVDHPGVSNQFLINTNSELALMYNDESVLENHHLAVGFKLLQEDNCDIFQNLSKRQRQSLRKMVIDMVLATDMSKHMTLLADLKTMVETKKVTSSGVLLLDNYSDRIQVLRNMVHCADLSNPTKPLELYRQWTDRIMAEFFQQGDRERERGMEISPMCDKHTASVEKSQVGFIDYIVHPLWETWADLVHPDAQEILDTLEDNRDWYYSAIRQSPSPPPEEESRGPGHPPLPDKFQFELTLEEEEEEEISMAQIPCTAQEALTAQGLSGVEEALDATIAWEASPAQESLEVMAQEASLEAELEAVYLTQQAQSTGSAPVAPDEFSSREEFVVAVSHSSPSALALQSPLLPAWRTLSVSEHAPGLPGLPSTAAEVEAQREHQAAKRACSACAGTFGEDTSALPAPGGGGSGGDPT
Chain of cGMP-inhibited 3',5'-cyclic phosphodiesterase 3B (Q13370 whole entry): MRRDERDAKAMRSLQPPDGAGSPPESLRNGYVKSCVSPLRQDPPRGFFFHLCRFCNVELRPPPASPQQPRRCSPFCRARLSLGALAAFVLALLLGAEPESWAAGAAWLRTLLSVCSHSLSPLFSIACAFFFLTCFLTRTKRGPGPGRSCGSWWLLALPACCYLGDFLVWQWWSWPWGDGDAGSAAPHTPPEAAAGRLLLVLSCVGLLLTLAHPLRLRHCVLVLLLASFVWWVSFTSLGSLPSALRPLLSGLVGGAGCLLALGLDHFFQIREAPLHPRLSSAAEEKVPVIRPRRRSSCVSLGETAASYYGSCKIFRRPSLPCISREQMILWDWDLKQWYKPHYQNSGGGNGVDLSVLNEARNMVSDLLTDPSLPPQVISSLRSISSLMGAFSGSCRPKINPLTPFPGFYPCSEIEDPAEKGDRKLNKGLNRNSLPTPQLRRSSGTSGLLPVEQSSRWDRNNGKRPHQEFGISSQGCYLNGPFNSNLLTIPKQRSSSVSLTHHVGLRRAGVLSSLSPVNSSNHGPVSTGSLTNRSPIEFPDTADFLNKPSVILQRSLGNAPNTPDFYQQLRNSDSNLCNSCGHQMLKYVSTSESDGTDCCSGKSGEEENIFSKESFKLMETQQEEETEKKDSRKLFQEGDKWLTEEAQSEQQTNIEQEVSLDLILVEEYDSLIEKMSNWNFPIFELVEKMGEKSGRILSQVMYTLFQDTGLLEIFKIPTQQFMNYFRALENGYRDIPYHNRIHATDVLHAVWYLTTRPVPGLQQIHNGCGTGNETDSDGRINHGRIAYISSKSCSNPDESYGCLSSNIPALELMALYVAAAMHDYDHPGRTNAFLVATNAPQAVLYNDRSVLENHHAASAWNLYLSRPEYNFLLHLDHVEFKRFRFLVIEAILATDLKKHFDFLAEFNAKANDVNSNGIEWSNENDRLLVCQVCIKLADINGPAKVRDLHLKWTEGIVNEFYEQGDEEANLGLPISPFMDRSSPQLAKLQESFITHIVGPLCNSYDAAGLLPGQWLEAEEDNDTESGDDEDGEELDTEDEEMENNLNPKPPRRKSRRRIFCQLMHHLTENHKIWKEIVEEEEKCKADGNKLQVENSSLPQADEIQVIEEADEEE
Chain of High affinity cAMP-specific and IBMX-insensitive 3',5'-cyclic phosphodiesterase 8A (O60658 whole entry): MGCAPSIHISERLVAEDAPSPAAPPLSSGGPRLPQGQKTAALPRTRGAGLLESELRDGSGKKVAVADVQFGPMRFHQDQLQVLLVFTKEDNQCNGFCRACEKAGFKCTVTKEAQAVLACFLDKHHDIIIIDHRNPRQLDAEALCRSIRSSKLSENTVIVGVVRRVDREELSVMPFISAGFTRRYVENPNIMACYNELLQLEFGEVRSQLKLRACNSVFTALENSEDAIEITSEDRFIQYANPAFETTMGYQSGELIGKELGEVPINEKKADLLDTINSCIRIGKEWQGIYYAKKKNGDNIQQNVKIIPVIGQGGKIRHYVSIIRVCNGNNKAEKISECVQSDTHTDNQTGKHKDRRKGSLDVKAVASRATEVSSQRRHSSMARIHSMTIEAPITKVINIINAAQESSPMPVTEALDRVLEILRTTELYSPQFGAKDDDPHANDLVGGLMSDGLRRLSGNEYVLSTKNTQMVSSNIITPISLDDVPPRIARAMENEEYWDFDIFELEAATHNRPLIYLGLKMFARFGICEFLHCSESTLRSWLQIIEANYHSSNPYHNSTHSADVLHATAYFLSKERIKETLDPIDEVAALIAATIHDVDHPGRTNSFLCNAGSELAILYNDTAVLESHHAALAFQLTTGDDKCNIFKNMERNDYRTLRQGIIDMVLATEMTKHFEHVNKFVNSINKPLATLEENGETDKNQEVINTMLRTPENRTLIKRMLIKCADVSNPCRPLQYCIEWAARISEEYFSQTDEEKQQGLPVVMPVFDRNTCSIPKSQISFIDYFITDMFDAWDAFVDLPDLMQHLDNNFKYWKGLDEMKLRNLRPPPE
Chain of 3',5'-cyclic-AMP phosphodiesterase 7B (Q9NP56 whole entry): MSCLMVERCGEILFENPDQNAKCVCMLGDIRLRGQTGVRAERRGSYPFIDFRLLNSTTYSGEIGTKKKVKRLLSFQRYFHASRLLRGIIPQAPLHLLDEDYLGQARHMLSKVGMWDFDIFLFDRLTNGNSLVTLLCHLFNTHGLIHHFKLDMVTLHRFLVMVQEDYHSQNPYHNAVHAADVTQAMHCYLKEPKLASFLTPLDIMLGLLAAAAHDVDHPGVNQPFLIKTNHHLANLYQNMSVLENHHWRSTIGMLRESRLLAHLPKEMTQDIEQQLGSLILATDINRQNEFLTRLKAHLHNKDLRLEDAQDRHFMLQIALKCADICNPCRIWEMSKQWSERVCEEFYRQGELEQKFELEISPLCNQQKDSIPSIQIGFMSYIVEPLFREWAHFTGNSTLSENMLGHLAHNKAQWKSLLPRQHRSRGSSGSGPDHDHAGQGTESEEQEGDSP

| Compound | Ki [1] [nM] | Ki [2] [nM] | Ki [3] [nM] | CLint scaled [4] [mL/min/kg] | Ki [5] [nM] | Ki [6] [nM] | Ki [7] [nM] | Ki [8] [nM] | Ki [9] [nM] | logD [12] | logD [13] | solubility [14] [µM] | Cmax [15] [ng/mL] | Cmax [16] [ng/mL] | AUC(0-t) [17] [ng·h/mL] | AUC(0-t) [18] [ng·h/mL] | half-life [23] [h] | Cmax [24] [ng/mL] | Tmax [25] [h] | AUC(0-inf) [26] [ng·h/mL] | other results |
| --- | --- | --- | --- | --- | --- | --- | --- | --- | --- | --- | --- | --- | --- | --- | --- | --- | --- | --- | --- | --- | --- |
| CN1C(=O)c2c(nn(Cc3ccc(C(F)(F)F)cc3)c2Nc2ccccc2)N2C1=N[C@@H]1CCC[C@@H]12 | 0.88 | 5400 | 930 | 139 | 39000 | 30000 | 590 | 1600 | 1200 | 4.47 | 1.16 | 35 (≈ 16.8 µg/mL) | 60 | 285 | 122 | 548 | 1.5 | 75 | 0.25 | 214 | Ki [10]: 54000 nM; Ki [11]: 50000 nM; half-life [19]: 1.4 h; Vd [20]: 7.44 L/kg; clearance [21]: 62 mL/min/kg; AUC(0-inf) [22]: 271 ng·h/mL; bioavailability [27]: 8% |
| CN1C(=O)c2c(nn(Cc3ccc(C(F)(F)F)nc3)c2Nc2ccccc2)N2C1=N[C@@H]1CCC[C@@H]12 | 1.9 | 19000 | 1200 | – | > 100000 | 42000 | 1200 | 5500 | 6100 | – | – | – | – | – | – | – | – | – | – | – | Ki [10]: > 100000 nM; Ki [11]: > 100000 nM |
| CN1C(=O)c2c(nn(Cc3ccc(C(F)(F)F)cc3)c2Nc2ccc(F)cc2)N2C1=N[C@@H]1CCC[C@@H]12 | 0.63 | – | 420 | 73 | – | – | – | – | – | 4.57 | 1.11 | 31 (≈ 15.5 µg/mL) | 21 | 133 | 24 | 166 | 2.2 | 42 | 0.5 | 164 | Ratio Ki [28]: 667; half-life [19]: 1.5 h; Vd [20]: 7.48 L/kg; clearance [21]: 57 mL/min/kg; AUC(0-inf) [22]: 292 ng·h/mL; bioavailability [27]: 6%; Kp (in vivo): 6.9 |
| CN1C(=O)c2c(nn(Cc3ccc(-c4ccccn4)cc3)c2Nc2ccccc2)N2C1=N[C@@H]1CCC[C@@H]12 | 0.085 | 2700 | 240 | 189 | 24000 | 1200 | 600 | 430 | 300 | 3.54 | -0.58 | > 100 | 48 | 28 | 65 | 21 | 1.5 | 158 | 0.5 | 636 | Ki [10]: 8200 nM; Ki [11]: 6100 nM; half-life [19]: 0.72 h; Vd [20]: 2.48 L/kg; clearance [21]: 40 mL/min/kg; AUC(0-inf) [22]: 420 ng·h/mL; bioavailability [27]: 16% |
| CN1C(=O)c2c(nn(Cc3ccc(-c4cccc(F)n4)cc3)c2Nc2ccccc2)N2C1=N[C@@H]1CCC[C@@H]12.O=P(O)(O)O [LENRISPODUN PHOSPHATE] | 0.058 | – | – | 78 | – | – | 630 | – | – | 4.41 | 1.27 | 22 | 490 | 387 | 826 | 588 | 1.5 | 252 | 0.75 | 802 | half-life [19]: 1.4 h; Vd [20]: 6.83 L/kg; clearance [21]: 55 mL/min/kg; AUC(0-inf) [22]: 300 ng·h/mL; bioavailability [27]: 28%; minimal effective dose (Rattus norvegicus): 3 mg/kg |
| CN1C(=O)c2c(nn(Cc3ccc(-c4ccccc4)cc3)c2Nc2ccccc2)N2C1=N[C@@H]1CCC[C@@H]12 | 0.85 | 7900 | 1300 | – | 37000 | 1500 | 1600 | 1100 | 910 | > 5 | 1.92 | 2 (≈ 0.977 µg/mL) | 130 | 474 | 286 | 542 | 3.1 | 102 | 4 | 816 | Ki [10]: 33000 nM; Ki [11]: > 100000 nM |
| CN1C(=O)c2c(nn(Cc3ccc(-c4cccc(F)n4)cc3)c2Sc2ccccc2)N2C1=N[C@@H]1CCC[C@@H]12 | 5.2 | – | 930 | 208 | – | – | – | – | – | > 5 | 2.49 | < 1 | 93 | 71 | 108 | 81 | – | – | – | – | Ratio Ki [28]: 179; Kp (in vivo): 0.8 |
